Common to all, as to assay type: in vivo
In assay [1] the test system is ZEAMX. Nature of the assay: Pre-emergence herbicidal activity, glasshouse pot test. The conditions noted are these: rate 1000 g/Ha, evaluated after 13 days, scale 0-5. In a few lines: (§1)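 Sow in pots of standard soil; after one day under glasshouse conditions, spray compound (acetone/water 50:50 formulation, 0.5% Tween 20, diluted in water). Grow on at 24/16 °C, 14 h light, 65% humidity with twice-daily watering. Assess at 13 days, 0–5 damage scale.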

Assay [2] deals with SETFA. The assay is described as above. The conditions noted are these: rate 1000 g/Ha, evaluated after 13 days, scale 0-5. An outline of the steps:
as §1

The test system of assay [3] is ALOMY. Described as above. The conditions noted are these: rate 1000 g/Ha, evaluated after 13 days, scale 0-5. In a few lines:
as §1

In assay [4] the test system is AMARE. The description is as above. Conditions: rate 1000 g/Ha, evaluated after 13 days, scale 0-5. An outline of the steps:
as §1

Assay [5] concerns ABUTH. Described as above. The conditions noted are these: rate 1000 g/Ha, evaluated after 13 days, scale 0-5. In a few lines:
as §1

Assay [6] has as its system ECHCG. The description is as above. The conditions noted are these: rate 1000 g/Ha, evaluated after 13 days, scale 0-5. An outline of the steps: as §1
Assay [7] concerns ZEAMX. Description: Post-emergence herbicidal activity, glasshouse pot test. The conditions noted are these: Zea mays; application post-emergence; rate 1000 g/Ha; evaluated after 13 days. In a few lines:
(§2)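 Foliar application to 8-day-old plants using a 0.5% Tween 20 acetone/water carrier; phytotoxicity is scored visually from 0 to 5 after 13 days of growth at 24/16 °C day/night.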

The subject of assay [8] is SETFA. Described as above. Conditions: Setaria faberi; application post-emergence; rate 1000 g/Ha; evaluated after 13 days. In a few lines:
as §2

Assay [9] deals with ALOMY. Described as above. The conditions noted are these: Alopecurus myosuroides; application post-emergence; rate 1000 g/Ha; evaluated after 13 days. In a few lines:
as §2

Assay [10] has as its system AMARE. The assay is described as above. The conditions noted are these: Amaranthus retroflexus; application post-emergence; rate 1000 g/Ha; evaluated after 13 days. In a few lines:
as §2

Assay [11] deals with ABUTH. Described as above. Conditions: Abutilon theophrasti; application post-emergence; rate 1000 g/Ha; evaluated after 13 days. In a few lines:
as §2

Assay [12] has as its system ECHCG. Described as above. Conditions: Echinochloa crus-galli; application post-emergence; rate 1000 g/Ha; evaluated after 13 days. In a few lines: as §2
For ABUTH damage score, application pre-emergence in this document: key: 5=total damage to plant; 0=no damage to plant.
For AMARE damage score, application pre-emergence in this document: key: 5=total damage to plant; 0=no damage to plant.
For Post-emergence herbicidal activity ALOMY (damage score 0-5) in this document: key: 5=total damage to plant; 0=no damage to plant.
For Post-emergence herbicidal activity SETFA (damage score 0-5) in this document: key: 5=total damage to plant; 0=no damage to plant.

For `CC1C(O)N(c2cc(C(F)(F)F)c(Cl)cn2)C(=O)N1C` (stereo not drawn) [Compound A49], the “ZEAMX damage score, application pre-emergence” value (from here on “ZEAMX damage score”) with ZEAMX [1] is 3. The “SETFA damage score, application pre-emergence” value (“SETFA damage score” for short) in the assay with SETFA [2] is reported as 4. Moreover, the “ALOMY damage score, application pre-emergence” value (“ALOMY damage score” for short) in the assay with ALOMY [3] amounted to 4. In addition, the “AMARE damage score, application pre-emergence” value (“AMARE damage score” for short) in the assay on AMARE [4] is given as 5. Further, the “ABUTH damage score, application pre-emergence” value (“ABUTH damage score” for short) in the assay on ABUTH [5] is reported as 5. Moreover, the “ECHCG damage score, application pre-emergence” value (“ECHCG damage score” for short) in the assay on ECHCG [6] is on record as 4. Further, the “Post-emergence herbicidal activity ZEAMX (damage score 0-5)” value (“Post-emergence herbicidal activity ZEAMX” for short) in the assay with ZEAMX [7] is 4. In the assay with SETFA [8], the “Post-emergence herbicidal activity SETFA (damage score 0-5)” value (shortened to “Post-emergence herbicidal activity SETFA”) was found to be 5. In addition, in the assay with ALOMY [9], the “Post-emergence herbicidal activity ALOMY (damage score 0-5)” value (“Post-emergence herbicidal activity ALOMY” below) came out at 5. Besides, the “Post-emergence herbicidal activity AMARE (damage score 0-5)” value (from here on “Post-emergence herbicidal activity AMARE”) in the assay with AMARE [10] is listed as 5. For the same compound, the “Post-emergence herbicidal activity ABUTH (damage score 0-5)” value (shortened to “Post-emergence herbicidal activity ABUTH”) with ABUTH [11] is 5. In addition, the “Post-emergence herbicidal activity ECHCG (damage score 0-5)” value (“Post-emergence herbicidal activity ECHCG” below) in the assay with ECHCG [12] is 5.

Turning to `CON1C(=O)N(c2cc(C(F)(F)F)c(Cl)cn2)C(O)C1C` (stereo not drawn) [Compound A50], the “ZEAMX damage score” value in the assay on ZEAMX [1] was 2. Further, the “SETFA damage score” value in the assay with SETFA [2] was 4. For the same compound, the “ALOMY damage score” value in the assay on ALOMY [3] turned out to be 4. The “AMARE damage score” value in the assay on AMARE [4] was 5. The “ABUTH damage score” value with ABUTH [5] is 5. In addition, in the assay with ECHCG [6], the “ECHCG damage score” value was 5. Besides, the “Post-emergence herbicidal activity ZEAMX” value in the assay with ZEAMX [7] was 5. The “Post-emergence herbicidal activity SETFA” value with SETFA [8] was 5. In addition, in the assay on ALOMY [9], the “Post-emergence herbicidal activity ALOMY” value was 5. The “Post-emergence herbicidal activity AMARE” value in the assay on AMARE [10] came out at 5. For the same compound, in the assay on ABUTH [11], the “Post-emergence herbicidal activity ABUTH” value worked out at 5. For the same compound, the “Post-emergence herbicidal activity ECHCG” value in the assay on ECHCG [12] turned out to be 5.

For `CCOC1C(O)N(c2cc(C(F)(F)F)c(C)cn2)C(=O)N1C` (stereo not drawn) [Compound A52], the “ZEAMX damage score” value in the assay with ZEAMX [1] was found to be 2. The “SETFA damage score” value in the assay with SETFA [2] was 4. Besides, in the assay on ALOMY [3], the “ALOMY damage score” value came out at 4. Besides, the “AMARE damage score” value in the assay with AMARE [4] is 5. Also, the “ABUTH damage score” value in the assay with ABUTH [5] worked out at 5. Besides, the “ECHCG damage score” value in the assay on ECHCG [6] amounted to 5. Further, the “Post-emergence herbicidal activity ZEAMX” value in the assay on ZEAMX [7] is on record as 5. In addition, the “Post-emergence herbicidal activity SETFA” value in the assay with SETFA [8] amounted to 5. The “Post-emergence herbicidal activity ALOMY” value in the assay with ALOMY [9] amounted to 5. For the same compound, the “Post-emergence herbicidal activity AMARE” value in the assay on AMARE [10] is 5. Besides, the “Post-emergence herbicidal activity ABUTH” value in the assay with ABUTH [11] stood at 5. In addition, in the assay with ECHCG [12], the “Post-emergence herbicidal activity ECHCG” value amounted to 5.

Take `CCOC1C(O)N(c2cc(C(F)(F)F)c(Cl)cn2)C(=O)N1C` (stereo not drawn) [Compound A53]: the “ZEAMX damage score” value with ZEAMX [1] is recorded as 2. For the same compound, the “SETFA damage score” value with SETFA [2] was found to be 4. Further, the “ALOMY damage score” value with ALOMY [3] was found to be 4. Moreover, the “AMARE damage score” value in the assay on AMARE [4] came to 5. For the same compound, the “ABUTH damage score” value in the assay on ABUTH [5] was found to be 5. Moreover, in the assay on ECHCG [6], the “ECHCG damage score” value is given as 4. Moreover, in the assay on ZEAMX [7], the “Post-emergence herbicidal activity ZEAMX” value stood at 3. The “Post-emergence herbicidal activity SETFA” value in the assay on SETFA [8] was 5. The “Post-emergence herbicidal activity ALOMY” value in the assay on ALOMY [9] is given as 5. In addition, the “Post-emergence herbicidal activity AMARE” value in the assay with AMARE [10] is given as 5. The “Post-emergence herbicidal activity ABUTH” value with ABUTH [11] turned out to be 5. In addition, in the assay on ECHCG [12], the “Post-emergence herbicidal activity ECHCG” value amounted to 5.

With `CCOC1C(O)N(c2cc(C(C)(F)F)ccn2)C(=O)N1C` (stereo not drawn) [Compound A59], in the assay on ZEAMX [1], the “ZEAMX damage score” value came to 1. In addition, the “SETFA damage score” value in the assay on SETFA [2] was 3. Moreover, the “ALOMY damage score” value in the assay with ALOMY [3] is 4. Also, the “AMARE damage score” value in the assay on AMARE [4] was 5. Also, in the assay with ABUTH [5], the “ABUTH damage score” value is 5. Further, the “ECHCG damage score” value in the assay with ECHCG [6] was 3. For the same compound, in the assay with ZEAMX [7], the “Post-emergence herbicidal activity ZEAMX” value is 4. For the same compound, the “Post-emergence herbicidal activity SETFA” value with SETFA [8] is listed as 5. In the assay with ALOMY [9], the “Post-emergence herbicidal activity ALOMY” value is listed as 5. In addition, in the assay with AMARE [10], the “Post-emergence herbicidal activity AMARE” value was 5. Moreover, the “Post-emergence herbicidal activity ABUTH” value in the assay with ABUTH [11] stood at 5. Besides, the “Post-emergence herbicidal activity ECHCG” value with ECHCG [12] came to 5.

For the origin of these results see patent publication US11608323B2 (SYNGENTA LIMITED, priority 2013, dated 2023).
